What was measured:
[1] = system: HepG2 cells; assay: RTCA proliferation, migration and invasion of KLK7 silenced HepG2 cells; format: cell-based
Method: (§1) Cell migration assay was performed on RTCA xCELLigence DP (ACEA Biosciences). […] Migration was measured as the relative cell index change measured by the microelectronic sensors integrated into the bottom side of the membrane. Measurements were recorded every 15 min for 36 h.
(§2) Cell matrigel invasion assay was similar to the cell migration assay, except that the microporous membrane between the upper and lower chambers was coated by a thin layer of matrigel (BD Biosciences). After 36 h, cells on the bottom side were fixed in cold methanol, stained with 0.4% crystal violet, and photographed (5 random fields for each sample).

[2] = system: PANC-1 cells; assay: RTCA cell migration assay; format: cell-based; settings: KLK7 silenced PANC-1 cells, compared to BC and NC groups
Method: as §1
(§3) The tested compound was added into the cell culture medium 3 h after PANC-1 cells were seeded. The cell prolifiation, migration and matrigel invasion was then assayed on RTCA.

[3] = system: KLK7; assay: KLK7 expression in lentivirus-infected PANC-1 cells (real-time PCR and western blotting); format: cell-based, human; settings: PANC-1 cells stably infected, compared to NC group
Source text: A scrambled shRNA sequence was used as the negative control (LV-NC-shRNA, 5′-[…]-3′). The shRNA sequences were synthesized and cloned into recombinant shRNA expression vectors (pGLV3-H1-GFP-Puro). The resulted plasmids were verified by DNA sequencing.
PANC-1 and HepG2 cell lines were obtained from the Chinese Type Culture Collection Center (Wuhan, China). PANC-1 cells were maintained in dulbecco’s modified Eagle medium supplemented with 10% fetal bovine serum, 100 units/ml penicillin G sodium, and 100 μg/ml streptomycin sulphate. HepG2 cells were maintained in RPMI 1640 medium supplemented with 10% fetal bovine serum, 100 units/ml penicillin G sodium, and 100 μg/ml streptomycin sulphate. PANC-1 and HepG2 cells pro-treated by 5 μg/ml polybrene were infected with the lentivirus and stably infected cells were selected in cell culture medium containing 4 μg/ml puromycin (Sigma-Aldrich). […]
Western blotting assay was performed with cell lysates collected from stably transfected cells. Total protein concentrations were measured with the bicinchoninic assay (BCA). The sample proteins (20μg for each lane) were analyzed first in 12% SDS-PAGE and then transferred onto polyvinylidine difuorides membranes. […] The chemiluminescent data were collected and grayscale values were evaluated with Image J.

[4] = system: PANC-1 cells; assay: RTCA matrigel invasion assay; format: cell-based; settings: KLK7 silenced PANC-1 cells, compared to BC and NC groups
Method: as §2, §3

## 5′-GCACUGAGUUAAUUAACUGUGUUUCAAGAGAACACAGUUAAUUAACUCAGUGCUU-3′ (expressed or natural sequence) [LV-hKLK7-shRNA-4, PANC-1 cells infected with it are named KD4]
[1]
  Effect on invasion of HepG2 cells: did not affect
  Effect on migration of HepG2 cells: did not affect
[2]
  Decrease of migration rate: about 85%
[3]
  Decrease of KLK7 expression: around 90%
[4]
  Invasion capacity: almost fully inhibited

— PMC5849182, “Kallikrein-related peptidase 7 is a potential target for the treatment of pancreatic cancer” (Oncotarget, 2018)
